In data set [1] the test system is Mycobacterium tuberculosis. The data set can be described thus: Bactericidal activity against Mycobacterium tuberculosis H37Rv in chronic Mtb infection BALB/c mouse model assessed as log10 CFU kill at 20 mg/kg, po qd via gavage measured after 4 weeks. The data set is classed as functional.
Data set [2] relates to Mycobacterium tuberculosis. The data set is classed as functional. The note with it: H37Rv, 168 h, time 7 day.
The subject of data set [3] is Mycobacterium tuberculosis. The data set is described as follows: Antibacterial activity against Mycobacterium tuberculosis assessed as inhibition of bacterial growth. The data set is classed as functional.
Data set [4] concerns Mycobacterium tuberculosis. The data set is described as follows: Antibacterial activity against Mycobacterium tuberculosis in chronic Mtb infection mouse model assessed as reduction in log10 CFU at 100 mg/kg bid. Format: functional.
Data set [5] concerns Mycobacterium tuberculosis. The data set can be described thus: microbe, parasite or virus in culture. The note with it: H37Rv.
Description: Antibacterial activity against Mycobacterium tuberculosis H37Rv assessed as inhibition of bacterial growth
The subject of data set [6] is Mycobacterium tuberculosis. The data set can be described thus: Antibacterial activity against Mycobacterium tuberculosis in chronic Mtb infection BALB/c mouse model assessed as reduction in log10 CFU in lungs at 200 mg/kg for 4 weeks. Format: functional.
Data set [7] can be described thus: Cytotoxicity against African green monkey Vero cells treated for 72 hrs by MTT assay. The data set is classed as toxicity, cell-based. The following applies: chlorocebus sabaeus.
Data set [8] deals with HepG2. The data set is described as follows: Cytotoxicity against human HepG2 cells treated for 72 hrs by MTT assay. Format: functional.
Data set [9] deals with T1, Voltage-gated inwardly rectifying potassium channel KCNH2 (Homo sapiens, UniProt Q12809).
T1 sequence (Q12809 whole entry): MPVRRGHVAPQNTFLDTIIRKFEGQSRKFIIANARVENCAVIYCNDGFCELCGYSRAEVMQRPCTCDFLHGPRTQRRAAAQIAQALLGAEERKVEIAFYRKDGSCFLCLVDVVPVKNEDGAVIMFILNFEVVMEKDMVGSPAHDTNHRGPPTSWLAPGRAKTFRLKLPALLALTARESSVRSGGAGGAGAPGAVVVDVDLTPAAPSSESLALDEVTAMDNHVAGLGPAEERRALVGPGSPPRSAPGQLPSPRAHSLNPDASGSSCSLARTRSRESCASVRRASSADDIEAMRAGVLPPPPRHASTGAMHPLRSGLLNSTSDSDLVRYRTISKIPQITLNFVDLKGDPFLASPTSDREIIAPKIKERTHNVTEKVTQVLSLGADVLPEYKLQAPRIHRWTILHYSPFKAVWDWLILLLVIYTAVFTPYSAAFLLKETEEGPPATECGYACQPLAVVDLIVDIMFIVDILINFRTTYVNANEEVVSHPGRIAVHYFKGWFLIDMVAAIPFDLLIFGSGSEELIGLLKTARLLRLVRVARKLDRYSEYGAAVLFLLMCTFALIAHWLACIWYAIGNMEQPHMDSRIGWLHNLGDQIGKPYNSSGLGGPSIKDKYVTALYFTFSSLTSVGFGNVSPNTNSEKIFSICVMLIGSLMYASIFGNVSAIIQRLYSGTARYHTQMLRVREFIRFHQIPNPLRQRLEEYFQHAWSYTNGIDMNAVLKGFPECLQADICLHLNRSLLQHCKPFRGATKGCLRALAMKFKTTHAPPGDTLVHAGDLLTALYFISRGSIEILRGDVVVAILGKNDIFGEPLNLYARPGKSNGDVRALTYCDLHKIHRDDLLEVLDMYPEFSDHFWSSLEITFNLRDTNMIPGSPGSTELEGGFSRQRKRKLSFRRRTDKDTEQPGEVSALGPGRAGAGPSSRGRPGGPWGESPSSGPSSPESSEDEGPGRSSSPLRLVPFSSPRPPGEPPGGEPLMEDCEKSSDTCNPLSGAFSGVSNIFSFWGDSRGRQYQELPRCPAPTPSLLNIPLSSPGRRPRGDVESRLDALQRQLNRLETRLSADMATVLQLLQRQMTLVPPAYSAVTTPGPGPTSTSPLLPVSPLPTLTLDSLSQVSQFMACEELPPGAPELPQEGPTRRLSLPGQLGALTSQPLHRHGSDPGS
The test system of data set [10] is Mycobacterium tuberculosis. The data set is described as follows: Antibacterial activity against Mycobacterium tuberculosis in acute Mtb infection BALB/c mouse model assessed as reduction in log10 CFU in lungs at 100 mg/kg for 3 weeks. The data set is classed as functional.
Data set [11] in a line: Oral bioavailability in Swiss Webster mouse at 10 mg/kg measured for 0.25 to 24 hrs by LC-MS/MS analysis. Format: ADME, organism-based. The following applies: in vivo, time 0.25-24 hrs.
Data set [12] has as its system Mycobacterium tuberculosis. Format: functional. The note with it: dose 100 mg/kg; route po; time 4 weeks.
Data set [13] relates to Mycobacterium tuberculosis. Format: functional. The note with it: dose 50 mg/kg; route po; time 4 weeks.
The test system of data set [14] is Mycobacterium tuberculosis. The data set is classed as functional. The note with it: H37Rv, 168 h, time 7 day. The source holds these as a separate data set.
In data set [15] the test system is Mycobacterium tuberculosis. The data set is classed as functional, H37Rv. The note with it: dose 25 mg/kg; route po; time 8 weeks.
Data set [16] deals with Mycobacterium tuberculosis. The data set is classed as functional. The note with it: H37Rv.
A short description of data set [17]: Oral bioavailability in mouse. Format: ADME, organism-based. The following applies: in vivo.
The test system of data set [18] is HepG2. The data set can be described thus: Cytotoxicity against human HepG2 cells. Format: functional.
Data set [19] in a line: Half life in mouse. The following applies: in vivo. The data set is classed as ADME, organism-based.
The subject of data set [20] is Mycobacterium tuberculosis. The data set is classed as functional, H37Rv. The note with it: dose 100 mg/kg.
Data set [21] is described as follows: Inhibition of bacterial InhA expressed in Escherichia coli BL21 (DE3) incubated for 1 hr by […]. Set-up: species or system Bacteria.
Data set [22] relates to Mycobacterium tuberculosis. The data set is classed as functional, H37Rv. The note with it: dose 300 mg/kg; time 8 day.
The nature of data set [23]: Aqueous solubility of compound in PBS at pH 7.4 incubated for 1 hr. The data set is classed as physicochemical.
Data set [24] concerns the target T1, Voltage-gated inwardly rectifying potassium channel KCNH2. The data set is described as follows: Inhibition of hERG by Qpatch assay. The data set is classed as toxicity.
Data set [25] in a line: Half life in overnight fasted Sprague-Dawley rat at 5 mg/kg measured for 0.25 to 24 hrs. The following applies: in vivo, time 0.25-24 hrs. The data set is classed as ADME, organism-based.
Data set [26] is described as follows: Absolute oral bioavailability in overnight fasted Sprague-Dawley rat at 5 mg/kg measured for 0.25 to 24 hrs. The note with it: in vivo, time 0.25-24 hrs. Format: ADME, organism-based.
Data set [27] is described as follows: Protein binding in human plasma. Format: ADME, cell-free. The following applies: read-out: PPB (converted).
For data set [28], the system named is A549. The data set can be described thus: Cytotoxicity against human A549 cells. The data set is classed as functional.
Data set [29] can be described thus: AUC in overnight fasted Sprague-Dawley rat at 5 mg/kg measured for 0.25 to 24 hrs. Format: ADME, organism-based. More on the design: time upper 24 hrs, dose 5 mg/kg, time lower 0.25 hrs. The following applies: in vivo.
Data set [30] relates to Mycobacterium tuberculosis. The data set can be described thus: Antibacterial activity against Mycobacterium tuberculosis Erdman in acute Mtb infection BALB/c mouse model assessed as reduction in log10 CFU in lungs at 150 mg/kg, po via gavage daily for 4 weeks. The data set is classed as functional.
Data set [31] is described as follows: Solubility of the compound. Format: physicochemical.
A short description of data set [32]: Selectivity index, ratio of CC50 for human HepG2 cells to MIC99 for Mycobacterium tuberculosis H37Rv. Format: toxicity.
Data set [33] deals with Mycobacterium tuberculosis. The data set is classed as functional. The following applies: H37Rv, time 6 day.
Data set [34] has as its system Mycobacterium tuberculosis. Format: functional, H37Rv. The following applies: dose 50 mg/kg; route po; time 4 weeks.
For data set [35], the system named is Mycobacterium tuberculosis. The data set is classed as functional, H37Rv.
In data set [36] the test system is Mycobacterium tuberculosis. The data set is classed as functional, H37Rv. The following applies: dose 50 mg/kg/day; route po; time <= 28 day.
The subject of data set [37] is A549. The data set is described as follows: Potency index, ratio of SKLB-TB1001 to test compound CC50 for cytotoxicity against human A549 cells. Format: functional.
Data set [38] relates to Mycobacterium tuberculosis. The data set is described as follows: Bactericidal activity against Mycobacterium tuberculosis in macrophages. The data set is classed as functional, Macrophage.
The subject of data set [39] is Mycobacterium tuberculosis. Format: functional, H37Rv. The note with it: dose 25 mg/kg; route po; time 4 weeks.
Data set [40] concerns Mycobacterium tuberculosis. The data set is described as follows: Antibacterial activity against Mycobacterium tuberculosis Kurono in chronic Mtb infection Slc:ICR mouse model assessed as reduction in log10 CFU in lungs at 2.5 mg/kg, po qd for 4 weeks. Format: functional.
Data set [41] deals with Mycobacterium tuberculosis. Format: functional. The note with it: H37Rv. The source holds these as a separate data set.
The test system of data set [42] is Mycobacterium tuberculosis. The data set is described as follows: Antibacterial activity against Mycobacterium tuberculosis Erdman in acute Mtb infection BALB/c mouse model assessed as reduction in log10 CFU in lungs at 50 mg/kg, po via gavage for 8 weeks. The data set is classed as functional.

The source of these data is ChEMBL document CHEMBL5137025, “Tuberculosis Drug Discovery: Challenges and New Horizons” (J Med Chem, 2022).

≈ marks a conversion by molar mass, not a printed value.

In the case of `COc1ncccc1Nc1cc2nc3ccccc3n(-c3ccc(OC(F)(F)F)cc3)c-2c/c1=N\C1CCC(OC)CC1` (configuration not stated), the Activity in data set [1] turned out to be 1.7 log10CFU. In [2], this molecule had an MIC90 of less than 0.008 µM.

As to `CCNC(=O)Nc1nc2cc(-c3cnc(C(C)(C)O)nc3)c(F)c([C@H]3CCCO3)c2[nH]1`, in [3], the MIC90 came to 0.07 µM (≈ 0.03 µg/mL).

On to `CCNC(=O)Nc1nc2cc(-c3cnc(C(C)(C)OP(=O)(O)O)nc3)c(F)c([C@H]3CCCO3)c2[nH]1`, for which the Activity in data set [4] is given as 2.5 log10CFU.

In data set [5], `CCOC(=O)NC(=O)c1ccsc1NC(=O)c1nc2cnccc2s1` came in with an MIC90 of 0.089 µM (≈ 0.0335 µg/mL). The figures for the Activity in data set [6] and in [10] were greater than 1.7 log10CFU and 2.3 log10CFU, respectively. In data set [7], this molecule yielded a CC50 at 72 h greater than 100 µM. In the data set with HepG2 [8], the CC50 is greater than 100 µM. In addition, the IC50 in data set [9] was greater than 30 µM.

In data set [11], `C[C@@H]1[C@H]2C[C@@H](C[C@H]1NC(=O)c1cc3c(F)cc(F)cc3[nH]1)C2(C)C` showed a bioavailability of 96%. For the same molecule, the results for the Activity in data set [12] and in [13] were 3.6 log10CFU and 4.7 log10CFU, respectively.

In the case of `CON=C1CCC(CN2CCN(c3nc(=O)c4cc(C(F)(F)F)cc([N+](=O)[O-])c4s3)CC2)CC1` (configuration not stated), the MIC90 in data set [14] was 0.028 µM (≈ 0.014 µg/mL). For the same molecule, the Activity in data set [15] was determined as 1.8 log10CFU.

Molecule `Cc1csc([C@](C)(O)c2nnc(Nc3ccn(Cc4csc(C)n4)n3)s2)n1` returned an MIC90 in data set [16] of 0.2 µM (≈ 0.0839 µg/mL). The bioavailability in [17] is 92%. Moreover, in the data set on HepG2 [18], the CC50 is greater than 50 µM. In addition, the half-life in data set [19] came out at 0.933 h. Also, the Activity in data set [20] and in data set [22] was 3 log10CFU each time. Further, the IC50 was 0.007 µM in [21] and greater than 50 µM in [24]. This molecule had a solubility at 1 h in data set [23] of 413 µM (≈ 173 µg/mL).

As to `O=c1nc(N2CCC3(CC2)OCCO3)sc2c([N+](=O)[O-])cc(C(F)(F)F)cc12`, the half-life in data set [25] is 1.5 h. The molecule also came in with an MIC90 in data set [5] of 0.045 µM (≈ 0.0188 µg/mL). This molecule also gave a bioavailability in data set [26] of 44%. Moreover, the fraction unbound in [27] was 0.006. In the data set with A549 [28], this molecule registered a CC50 greater than 231 µM. This molecule also had an AUC in [29] of 0.847 µg·h/mL. Also, the Activity in data set [30] came out at 3.4 log10CFU. The same molecule displayed a solubility in [31] of less than 2.3 µM.

Regarding `O=c1nc(N2CCN(S(=O)(=O)C3CC3)CC2)sc2c([N+](=O)[O-])cc(C(F)(F)F)cc12`, in [32], the selectivity ratio was 2620. The same molecule gave a CC50 with HepG2 [18] of 17 µM. Further, in data set [33], the MIC99 was found to be 0.0065 µM (≈ 0.00302 µg/mL). The same molecule displayed an Activity in data set [34] of 0.5 log10CFU. Further, the solubility in [31] is 19 µM (≈ 8.82 µg/mL).

Molecule `COc1nc2ccc(Br)cc2cc1[C@@H](c1ccccc1)[C@@](O)(CCN(C)C)c1cccc2ccccc12` [BEDAQUILINE] came in with an MIC90 in data set [5] of 0.022 µM (≈ 0.0122 µg/mL). In addition, in data set [35], the Ratio is recorded as 6.

In data set [25], `C[C@H]1COC2(CCN(c3nc(=O)c4cc(C(F)(F)F)cc([N+](=O)[O-])c4s3)CC2)O1` [BTZ-043] gave a half-life of 1.2 h. Moreover, the Activity in data set [36] was 0.6 log10CFU. This molecule registered a bioavailability in data set [26] of 30%. The Ratio with A549 [37] was 4. The same molecule returned a CC50 in the data set with A549 [28] of 58 µM. This molecule also came in with an AUC in [29] of 0.899 µg·h/mL.

For the molecule `Cc1cccc(OC2CCN(Cc3cc(=O)[nH]c(=O)[nH]3)CC2)c1C` [GSK-2556286], the Activity in data set [38] is less than 0.1 µM.

Regarding `O=c1nc(N2CCN(CC3CCCCC3)CC2)sc2c([N+](=O)[O-])cc(C(F)(F)F)cc12` [MACOZINONE], the Activity in data set [36] is recorded as 1.1 log10CFU; in data set [39] it was 1 log10CFU.

With `O=C1CCc2c(OC[C@]3(O)CCN(c4c(F)cc(Cl)cc4F)C[C@H]3O)ccc(F)c2N1` [QUABODEPISTAT], in data set [40], the Activity was greater than 1 log10CFU.

As for `CCc1nc2ccc(Cl)cn2c1C(=O)NCc1ccc(N2CCC(c3ccc(OC(F)(F)F)cc3)CC2)cc1` [TELACEBEC], in data set [41], the MIC50 is 0.0027 µM (≈ 0.0015 µg/mL). This molecule showed an MIC90 in data set [5] of 0.011 µM (≈ 0.00613 µg/mL). In addition, the Activity in [42] was 0.6 log10CFU.
